Source: patent publication US8178678B2, “Bis-quaternary ammonium salts and methods for modulating neuronal nicotinic acetylcholine receptors” (University of Kentucky Research Foundation, priority 2006, dated 2012)

Experiments:
[1] = target: T1, Rat Striatal Nicotinic Receptors ([^3H]NIC binding sites; α4β2) (Rattus norvegicus, UniProt P09483+P12390); assay: Inhibition of [^3H]NIC binding; details: 1 h; 100 nM analog; 3 nM [^3H]NIC; nonspecific 10 μM cytisine; rat brain membranes
T1 construct: Whole brain, excluding cortex and cerebellum, was homogenized in 20 vol of ice-cold buffer; from tissue; host or cells: rat brain membranes (whole brain excluding cortex and cerebellum)
Procedure: (§1) Homogenate was centrifuged (25,000 g, 15 min, 4° C). Pellets were resuspended in 20 vol buffer and incubated at 37° C., for 10 min, cooled to 4° C. and centrifuged (25,000 g, 15 min, 4° C.). Pellets were resuspended and centrifuged using the same conditions. […] Upon use, final pellets were resuspended in 20 vol assay buffer. Samples (250 μl) contained 100-140 μg of membrane protein, 3 nM [^3H]-S-nicotine or 3 nM [^3H]-methyllycaconitine (MLA), and bis-quaternary ammonium analog (100 nM) in assay buffer containing 50 mM Tris. Control was in the absence of analog. In [^3H]-S-nicotine and [^3H]-methyllycaconitine binding assays, nonspecific binding was determined in the presence of 10 μM cytisine and 10 μM S-nicotine, respectively. Incubations proceeded for 60 min at room temperature using 96-well plates and were terminated by harvesting on Unifilter-96 GF/B filter plates presoaked in 0.5% polyethylenimine, using a Packard FilterMate harvester. After washing 5 times with 350 μl ice-cold assay buffer, filter plates were dried (60 min, 4° C.), bottom-sealed, and filled with Packard's MicroScint 20 cocktail (40 μl/well). After 60 min, filter plates were top-sealed, and radioactivity determined using a Packard TopCount. Protein concentrations were determined using the Bradford dye-binding procedure bovine serum albumin as the standard.
Specific binding in the [^3H]NIC binding assay is calculated as the difference between the total binding of 3 nM [^3H]NIC and nonspecific binding in the presence of 10 μM cold cytisine. […] Analog-induced inhibition of S-nicotine-evoked [^3H]DA release is calculated as a percent of that in the absence of the bis-quaternary ammonium analog.

[2] = target: T2, Rat Striatal Nicotinic Receptors ([^3H]MLA binding sites; α7) (Rattus norvegicus, UniProt Q05941); assay: Inhibition of [^3H]MLA (methyllycaconitine) binding; details: 100 nM analog; [^3H]MLA; nonspecific S-nicotine; rat brain membranes; read-out: [^3H]MLA binding, % inhibition
T2 construct: Whole brain, excluding cortex and cerebellum, was homogenized in 20 vol of ice-cold buffer; from tissue; host or cells: rat brain membranes (whole brain excluding cortex and cerebellum)
Procedure: as §1, with “standard. […]” for “standard.”

T2 sequence (Q05941 23-502): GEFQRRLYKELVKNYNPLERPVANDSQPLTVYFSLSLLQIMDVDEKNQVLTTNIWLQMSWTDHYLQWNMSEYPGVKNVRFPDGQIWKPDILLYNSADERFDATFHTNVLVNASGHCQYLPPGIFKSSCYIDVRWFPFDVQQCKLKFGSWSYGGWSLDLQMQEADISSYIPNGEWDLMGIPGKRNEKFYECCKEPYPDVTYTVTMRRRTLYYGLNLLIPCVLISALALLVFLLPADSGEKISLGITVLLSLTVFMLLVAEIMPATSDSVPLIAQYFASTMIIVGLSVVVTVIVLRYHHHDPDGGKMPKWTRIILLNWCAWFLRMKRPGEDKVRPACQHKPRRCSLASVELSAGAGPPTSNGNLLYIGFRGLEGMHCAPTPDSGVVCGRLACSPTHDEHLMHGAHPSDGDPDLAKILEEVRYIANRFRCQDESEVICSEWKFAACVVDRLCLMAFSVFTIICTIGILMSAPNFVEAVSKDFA
T1 sequence (P09483 31-630): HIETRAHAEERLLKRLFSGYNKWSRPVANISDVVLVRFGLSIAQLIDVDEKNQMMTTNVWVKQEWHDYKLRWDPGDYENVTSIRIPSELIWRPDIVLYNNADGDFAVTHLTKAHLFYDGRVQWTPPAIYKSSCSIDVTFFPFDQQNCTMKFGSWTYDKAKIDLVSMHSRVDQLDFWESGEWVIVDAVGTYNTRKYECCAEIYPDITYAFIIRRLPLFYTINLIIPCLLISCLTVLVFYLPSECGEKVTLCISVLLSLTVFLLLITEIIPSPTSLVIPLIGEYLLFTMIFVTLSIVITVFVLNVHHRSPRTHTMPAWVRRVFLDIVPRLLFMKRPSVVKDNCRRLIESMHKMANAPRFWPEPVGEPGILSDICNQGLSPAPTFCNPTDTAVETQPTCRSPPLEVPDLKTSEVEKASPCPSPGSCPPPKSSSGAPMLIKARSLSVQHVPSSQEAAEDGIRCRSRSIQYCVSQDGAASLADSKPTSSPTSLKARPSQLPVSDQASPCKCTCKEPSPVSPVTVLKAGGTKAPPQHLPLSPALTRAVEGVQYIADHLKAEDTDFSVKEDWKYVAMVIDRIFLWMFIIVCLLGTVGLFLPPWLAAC
T1 sequence (P12390 25-500): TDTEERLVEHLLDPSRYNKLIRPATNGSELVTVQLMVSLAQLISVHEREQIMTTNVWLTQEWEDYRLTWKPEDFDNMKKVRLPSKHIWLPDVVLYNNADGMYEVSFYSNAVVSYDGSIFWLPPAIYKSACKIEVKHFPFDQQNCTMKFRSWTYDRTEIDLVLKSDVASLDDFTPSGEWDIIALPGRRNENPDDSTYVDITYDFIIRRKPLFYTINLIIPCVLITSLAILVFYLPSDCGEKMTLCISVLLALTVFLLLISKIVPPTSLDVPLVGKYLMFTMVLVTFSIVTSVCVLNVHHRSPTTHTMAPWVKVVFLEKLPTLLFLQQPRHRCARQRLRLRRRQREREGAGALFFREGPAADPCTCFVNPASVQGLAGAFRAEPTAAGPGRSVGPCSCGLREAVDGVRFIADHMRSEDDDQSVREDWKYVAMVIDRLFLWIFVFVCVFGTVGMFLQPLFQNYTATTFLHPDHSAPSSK

SMILES | inhibition at 0.1 µM [1] | inhibition at 0.1 µM [2]
Cc1cc[n+](CCCC/C=C\C=C/CCCC[n+]2ccc(C)cc2C)c(C)c1 [Example 7, cis-cis-N,N′-(dodeca-5,7-diene-1,12-diyl)-bis-(2,4-dimethyl-pyridinium)dibromide] | 1% | 6%
Cc1cc[n+](CCCC/C=C\C=C/CCCC[n+]2ccc(C)c(C)c2)cc1C [Example 8, cis-cis-N,N′-(dodeca-5,7-diene-1,12-diyl)-bis-(3,4-dimethyl-pyridinium)dibromide] | 0% | 0%
Cc1cc(C)c[n+](CCCC/C=C\C=C/CCCC[n+]2cc(C)cc(C)c2)c1 [Example 9, cis-cis-N,N′-(dodeca-5,7-diene-1,12-diyl)-bis-(3,5-dimethyl-pyridinium)dibromide] | 0% | 0%
CCc1ccc[n+](CCCCc2ccc(CCCC[n+]3cccc(CC)c3)cc2)c1 [Example 14, N,N′-[1,4-phenylenedi-(4-butanyl)]-bis-(3-ethylpyridinium)dibromide] | 2% | 4%
Cc1cc[n+](CCCCc2ccc(CCCC[n+]3ccc(C)cc3C)cc2)c(C)c1 [Example 18, N,N′-[1,4-phenylenedi-(4-butanyl)]-bis-(2,4-dimethylpyridinium)dibromide] | 0% | 0%
Cc1cc[n+](CCCCc2ccc(CCCC[n+]3ccc(C)c(C)c3)cc2)cc1C [Example 19, N,N′-[1,4-phenylenedi-(4-butanyl)]-bis-(3,4-dimethylpyridinium)dibromide] | 0% | 0%
Cc1cc(C)c[n+](CCCCc2ccc(CCCC[n+]3cc(C)cc(C)c3)cc2)c1 [Example 20, N,N′-[1,4-phenylenedi-(4-butanyl)]-bis-(3,5-dimethylpyridinium)dibromide] | 1% | 0%
CCCCc1ccc[n+](CCCCCc2ccccc2CCCCC[n+]2cccc(CCCC)c2)c1 [Example 43, 1,2-bis-[5-(3-n-butyl-pyridinium)-pentyl]-benzene dibromide] | 0.8% | 5.5%
CCCCc1ccc[n+](CCCC#Cc2cccc(C#CCCC[n+]3cccc(CCCC)c3)c2)c1 [Example 57, 1,3-bis-[5-(3-n-butyl-pyridinium)-pent-1-ynyl]-benzene dibromide] | 3.5% | 8.7%
Cc1cc(C)c[n+](CCCc2ccc(-c3ccc(CCC[n+]4cc(C)cc(C)c4)cc3)cc2)c1 [Example 71, N,N′-[(1,1′-biphenyl)-4,4′-di-(3-propanyl)]-bis-(3,5-dimethylpyridinium)dibromide] | 1.6% | 3.6%
Cc1cc[n+](CCCc2ccc(-c3ccc(CCC[n+]4ccc(C)c(C)c4)cc3)cc2)cc1C [Example 72, N,N′-[(1,1′-biphenyl)-4,4′-di-(3-propanyl)]-bis-(3,4-dimethylpyridinium)dibromide] | 0% | 5.5%
Cc1cc[n+](CCCc2ccc(-c3ccc(CCC[n+]4ccc(C)cc4C)cc3)cc2)c(C)c1 [Example 73, N,N′-[(1,1′-biphenyl)-4,4′-di-(3-propanyl)]-bis-(2,4dimethylpyridinium)dibromide] | 3% | 0.6%
OCCCc1ccc[n+](CCCc2ccc(-c3ccc(CCC[n+]4cccc(CCCO)c4)cc3)cc2)c1 [Example 74, N,N′-[(1,1′-biphenyl)-4,4′-di-(3-propanyl)]-bis-[3-(3-hydroxy-propyl)-pyridinium]dibromide] | 2% | 5.8%
c1cc2c([n+](CCCc3ccc(-c4ccc(CCC[n+]5cccc6c5CCCC6)cc4)cc3)c1)CCCC2 [Example 75, N,N′-[(1,1′-biphenyl)-4,4′-di-(3-propanyl)]-bis-[5,6,7,8-tetrahydroquinolinium]dibromide] | 0.4% | 10%
c1cc(-c2ccc(CCC[n+]3ccc4c(c3)CCCC4)cc2)ccc1CCC[n+]1ccc2c(c1)CCCC2 [Example 76, N,N′-[(1,1′-biphenyl)-4,4′-di-(3-propanyl)]-bis-[5,6,7,8-tetrahydroisoquinolinium]dibromide] | 0% | 5.1%
Cc1cc[n+](CCCc2ccc(-c3ccc(CCC[n+]4ccc(C)cc4)cc3)cc2)cc1 [Example 77, N,N′-[(1,1′-biphenyl)-4,4′-di-(3-propanyl)]-bis-(4-methylpyridinium)dibromide] | 0% | 0%
Cc1cccc[n+]1CCCc1ccc(-c2ccc(CCC[n+]3ccccc3C)cc2)cc1 [Example 79, N,N′-[(1,1′-biphenyl)-4,4′-di-(3-propanyl)]-bis-(2-methylpyridinium)dibromide] | 0% | 0%
CN1CCC[C@H]1c1ccc[n+](CCOCCOCCOCC[n+]2cccc([C@@H]3CCCN3C)c2)c1 [Example 80, N,N′-{2,2′-[oxybis-(2,1-ethandiyloxy)]bis-ethyl}-bis-[3-(2′-S-1-methyl-pyrrolidin-2-yl)-pyridinium]dichloride] | 7.2% | 13%
Cc1cccc[n+]1CCOCCOCCOCC[n+]1ccccc1C [Example 81, N,N′-{2,2′-[oxybis-(2,1-ethandiyloxy)]bis-ethyl}-bis(2-methylpyridinium)dichloride] | 8.5% | 17%
c1cc2c([n+](CCOCCOCCOCC[n+]3cccc4c3CCCC4)c1)CCCC2 [Example 84, N,N′-{2,2′-[oxybis-(2,1-ethandiyloxy)]bis-ethyl}-bis(5,6,7,8-tetrahydroquinolinium)dichloride] | 0% | 4.7%
c1c[n+](CCOCCOCCOCC[n+]2ccc3c(c2)CCCC3)cc2c1CCCC2 [Example 85, N,N′-{2,2′-[oxybis-(2,1-ethandiyloxy)]bis-ethyl}-bis(5,6,7,8-tetrahydroisoquinolinium)dichloride] | 6% | 16%
OCCCc1ccc[n+](CCOCCOCCOCC[n+]2cccc(CCCO)c2)c1 [Example 86, N,N′-{2,2′-[oxybis-(2,1-ethandiyloxy)]bis-ethyl}-bis-[3-(3-hydroxypropyl)-pyridinium]dichloride] | 8.2% | 8.5%
OCc1ccc[n+](CCOCCOCCOCC[n+]2cccc(CO)c2)c1 [Example 87, N,N′-{2,2′-[oxybis-(2,1-ethandiyloxy)]bis-ethyl}-bis-(3-hydroxymethylpyridinium)dichloride] | 8.2% | 11%
Cc1cc[n+](CCOCCOCCOCC[n+]2ccc(C)cc2C)c(C)c1 [Example 88, N,N′-{2,2′-[oxybis-(2,1-ethandiyloxy)]bis-ethyl}-bis-(2,4-dimethylpyridinium)dichloride] | 0% | 2.9%
Cc1cc[n+](CCOCCOCCOCC[n+]2ccc(C)c(C)c2)cc1C [Example 89, N,N′-{2,2′-[oxybis-(2,1-ethandiyloxy)]bis-ethyl}-bis-(3,4-dimethylpyridinium)dichloride] | 13% | 14%
